Data from ChEMBL document CHEMBL3988442, “University of Dundee, Small-Polar-MMV Screening Library” (2021).
“And” between values parts separate entries of the source, which are not always exact repeats. Equal entries are not always repeated.

Assays:
[1] = test system: Mycobacterium tuberculosis; assay: Cornell M. t heat shock assay; format: functional, organism-based; details: for IC50: Mycobacterium tuberculosis
[2] = microbe, parasite or virus in culture; details: Mycobacterium tuberculosis, 72 h, read-out: pIC50 (converted)
[3] = microbe, parasite or virus in culture; details: Mycobacterium tuberculosis, 96 h, read-out: pIC50 (converted)
Plasmodium falciparum = assay: Calibr Malaria Delayed Death Assay SOP; format: functional, organism-based

Row | Structure (SMILES) | IC50 [1] | also measured
1 | COCCCNC(=O)CN(C)C(=O)c1cc(Cl)ccc1O | 87.8 µM | pIC50 [1]: < 4
2 | Cc1c(CN(C)c2cc(C3CCCNC3)ncn2)[nH]c2ccccc12 (stereo not given) | > 100 µM | –
3 | Cc1cc(C)n(CC2CCCN2CC(=O)Nc2cc(C(C)C)no2)n1 (stereo not given) | – | pIC50 [1]: 4.348 and 4.706
4 | Cn1ccnc1C(NCc1ccccc1)c1ccc(F)cc1 (stereo not given) | > 100 µM | –
5 | COc1cc(C2Nc3cc(Cl)ccc3C3=NCCN32)ccc1O (stereo not given) | > 100 µM | –
6 | CCN1CCN(c2ccc(NC(C)c3nc(C(C)C)no3)c(C)c2)CC1 (stereo not given) | > 100 µM | –
7 | O=c1[nH]c(CCN2CCCC2Cn2cncn2)nc2ccccc12 (stereo not given) | 34.3 µM | –
8 | COc1ccc2c(c1)OCC(CNc1cc(N)nc(SC)n1)C2 (stereo not given) | 62.6 µM | –
9 | COc1cc(C(=O)Nc2nc(C)no2)cc(OC)c1Br | 21 µM | pIC50 [1]: 4.518
10 | Cc1cc(-c2cnc(NC3CCCC3)nc2-c2ccc(C)o2)on1 | > 100 µM | pIC50 [1]: 4.052
11 | COc1ccc(CN2CCc3c(nc(-c4ccccn4)[nH]c3=O)C2)cc1 | – | pIC50 [1]: 4.829 and 5.147
12 | Cc1cccc(CN2CCCC2c2cncc(Nc3nncs3)n2)c1 (stereo not given) | 17.1 µM | –
13 | O=C(c1cc2cc(I)ccc2[nH]1)N1CCC(Nc2cccnn2)CC1 | 48.7 µM | –
14 | Fc1ccccc1CN1CCC[C@@H](Cn2nnc(-c3cccs3)n2)C1 | > 100 µM | IC50 [2]: 16.9 µM; IC50 [3]: 33.3 µM
15 | O[C@@H]1CN(CC2=Cc3cc(Cl)ccc3OC2)CC[C@H]1N1CCCCCC1 | 52.7 µM | IC50 [2]: 49.3 µM; IC50 [3]: 46.9 µM
16 | CC(C)c1ncc2c(n1)CN(CCCc1nc3ccccc3o1)CC2 | > 100 µM | –
17 | CCN1c2ccc(-c3cncn3CC(=O)NC(C)(C)C)cc2CC1C (stereo not given) | > 100 µM | –
18 | CSc1nccc(-c2cccc(-c3ccn(CC4COCCO4)n3)c2)n1 (stereo not given) | 40.3 µM | –
19 | O=C(NCC(O)c1ccsc1)Nc1cccs1 (stereo not given) | 67.5 µM | –
20 | Cc1noc(NC(=O)c2ccccc2)n1 | 62.6 µM | pIC50 [1]: 4.405
21 | Cc1cccn2cc(CN3CCCC(c4noc(C5CC5)n4)C3)nc12 (stereo not given) | 46.5 µM | –
22 | Cc1ccc(S(=O)(=O)NCCc2ccoc2)s1 | 31 µM | IC50 [2]: 38 µM; IC50 [3]: 46.2 µM
23 | Oc1cc(C2CCCN(Cc3cccs3)C2)nc(-c2ccccn2)n1 (stereo not given) | – | pIC50 [1]: 4.835 and 5.179
24 | CC1CCCN(c2ncc(-c3ccccc3F)c(-c3nccn3C)n2)C1 (stereo not given) | – | pIC50 [1]: 4.289 and 4.7
25 | COc1cccc2sc(N3CCN(C(=O)c4cc(C)on4)CC3)nc12 | > 100 µM | –
26 | COc1ccc(CNC(Cc2ccsc2)c2ccc(C)cn2)cc1OC (stereo not given) | 25.6 µM | –

Row | Structure (SMILES) | IC50 [1] | also measured
27 | CCSCCNc1cc(C)nc2c(C)c(C)nn12 | 23.5 µM | IC50 [2]: 5.48 µM; IC50 [3]: 7.02 µM
28 | Cn1c(CCN2CCN(CCc3ccccc3)CC2)nc2ccccc21 | > 100 µM | –
29 | Cc1cc(O)cc(=O)n1CCCC(=O)Nc1n[nH]c2cc(Br)ccc12 | > 100 µM | –
30 | CC(C)C[C@H](N)COc1cccc(F)c1Oc1ccc(Cl)cc1 | 20.5 µM | IC50 [2]: 17.6 µM; IC50 [3]: 21 µM
31 | COc1ccc(OCc2cc(C(=O)N3CCCCO3)n[nH]2)c(Cl)c1 | > 100 µM | –
32 | Cc1ccc(CNC(c2cccc(F)c2)c2nccn2C)o1 (stereo not given) | > 100 µM | –
33 | O=C(Nc1nc2c(s1)CNCC2)NC1CCCC1 | > 100 µM | –
34 | O=C(Nc1ccnc2ccnn12)c1ccc(N2CCC(O)CC2)cc1 | 74.1 µM | –
35 | c1cc(CN2CCCCC2c2ccc(Nc3cnccn3)nc2)ccn1 (stereo not given) | – | pIC50 [1]: < 4 and < 4.31
36 | Cc1cc(O)cc(=O)n1CCCC(=O)Nc1n[nH]c2cccc(F)c12 | > 100 µM | –
37 | CCn1nc(C)c(CNC(=O)c2nnc3ccc(Cl)cc3n2)c1C | 17.3 µM | –
38 | COc1cccc(OC)c1CNC(Cc1ccsc1)c1ccc(C)cn1 (stereo not given) | 27 µM | IC50 [2]: 16.4 µM; IC50 [3]: 12.5 µM; pIC50 (Plasmodium falciparum): 5.969; IC50 (Plasmodium falciparum; Plasmodium falciparum): 1.09 µM
39 | CCNC(=O)[C@@H]1C[C@H](NC(=O)Cn2ccnc2)CN1Cc1ccsc1 | > 100 µM | –
40 | CC1(c2ccccc2)CCCN(Cc2cncn2C2CC2)C1 (stereo not given) | 45.7 µM | –
41 | NCC1CCC(c2c(C(=O)NCCO)sc3ccccc23)CC1 (stereo not given) | > 100 µM | –
42 | Cc1cc(Nc2ccc(F)cn2)cc(C2CCN(Cc3ncc[nH]3)C2)n1 (stereo not given) | > 100 µM | –
43 | COCCN(C)c1ccc(NCc2ccsc2)nc1 | > 100 µM | –
44 | CNC(=O)C1(C)CN(Cc2cn(C)c3ccc(F)cc23)CCO1 (stereo not given) | > 100 µM | –
45 | Cc1cc(N2CCOCC2)ccc1NC(C)c1nc(C(C)(C)C)no1 (stereo not given) | > 100 µM | –
46 | CC(C)c1nc(N2CCC(N3CCCCCC3)CC2)c2cnn(C)c2n1 | 52.5 µM | –
47 | O=c1[nH]c(CCN2CCCC2Cn2cccn2)nc2ccccc12 (stereo not given) | 47.5 µM | –
48 | COc1ccc(N2CCC(NCc3csc(C(C)C)n3)CC2)cc1 | > 100 µM | –
49 | COc1ccccc1CN1CCc2c(nc(-c3ccccn3)[nH]c2=O)C1 | 3.35 µM | –
50 | CCC(=O)N1CCN(C(=O)Cn2cccn2)CC1 | 22.2 µM | –
51 | COc1ccccc1C(NCc1ccc(SC)cc1)c1nccn1C (stereo not given) | 48.8 µM | –
52 | Cn1ccnc1-c1nc(NC2CCCC2)ncc1-c1cccc(F)c1 | 40.3 µM | –
